From ChEMBL document CHEMBL3885881, “DrugMatrix”

Species on record: Rattus norvegicus
Assay: DrugMatrix - Regimen: Daily Repeat
Format: toxicity, organism-based, Sprague-Dawley
Design: regimen Daily Repeat, gender Male, age 6-8 weeks
Conditions: in vivo, po, […], route oral GAVAGE; for ABSOLUTE BASOPHIL / ABSOLUTE EOSINOPHIL / ABSOLUTE LYMPHOCYTE / ABSOLUTE MONOCYTE / ABSOLUTE SEGMENTED NEUTROPHIL / BASOPHIL / EOSINOPHIL / ERYTHROCYTE COUNT / HEMATOCRIT / HEMOGLOBIN / LEUKOCYTE COUNT / LYMPHOCYTE / MEAN CORPUSCULAR HEMOGLOBIN / MEAN CORPUSCULAR HEMOGLOBIN CONCENTRATION / MEAN CORPUSCULAR VOLUME / MONOCYTE / NEUTROPHIL / NUCLEATED RED BLOOD CELLS / PLATELET COUNT: tissue Blood; for ALANINE AMINOTRANSFERASE / ALBUMIN / ALKALINE PHOSPHATASE / ASPARTATE AMINOTRANSFERASE / BLOOD UREA NITROGEN / CARBON DIOXIDE / CHLORIDE / CHOLESTEROL / CREATINE PHOSPHOKINASE / CREATININE / GLUCOSE / LACTATE DEHYDROGENASE / LIPASE / PHOSPHORUS / POTASSIUM / SODIUM / TOTAL BILIRUBIN / TOTAL PROTEIN / URIC ACID: tissue Plasma
[1] = 400 mg/kg, dose level Low, time 7 day
[2] = 1175 mg/kg, 72 h, dose level High, time 3 day
[3] = 1175 mg/kg, dose level High, time 7 day

With `ClC(Cl)(Cl)Cl` [CARBON TETRACHLORIDE] the “ABSOLUTE BASOPHIL” value [1] was 0 CELLS/uL, the “ABSOLUTE EOSINOPHIL” value [1] was 0 CELLS/uL and the “ABSOLUTE LYMPHOCYTE” value [1] was 12903.17 CELLS/uL. For the same compound, the “ABSOLUTE MONOCYTE” value [1] was 339.83 CELLS/uL, the “ABSOLUTE SEGMENTED NEUTROPHIL” value [1] was 990.33 CELLS/uL and the BASOPHIL [1] was 0%. For the same compound, the EOSINOPHIL [1] was 0%, the “ERYTHROCYTE COUNT” value [1] was 6.32 x10E6/uL and the HEMATOCRIT [1] was 37.03%. The HEMOGLOBIN [1] was 14.83 G/DL, the “LEUKOCYTE COUNT” value [1] was 14.23 x10E3/uL and the LYMPHOCYTE [1] was 90.33%. For the same compound, the “MEAN CORPUSCULAR HEMOGLOBIN” value [1] was 23.5 pg, the “MEAN CORPUSCULAR HEMOGLOBIN CONCENTRATION” value [1] was 40.08 G/DL and the “MEAN CORPUSCULAR VOLUME” value [1] was 58.68 fL. The MONOCYTE [1] was 2.17%, the NEUTROPHIL [1] was 7.5% and the “NUCLEATED RED BLOOD CELLS” value [1] was 0 /100WBC. For the same compound, the “PLATELET COUNT” value [1] was 869.5 x10E3/uL, the “ALANINE AMINOTRANSFERASE” value [1] was 295.83 u/L and the ALBUMIN [1] was 4.12 G/DL. For the same compound, the “ALKALINE PHOSPHATASE” value [1] was 598 u/L, the “ASPARTATE AMINOTRANSFERASE” value [1] was 469.33 u/L and the “BLOOD UREA NITROGEN” value [1] was 15.17 mg/dL. For the same compound, the “CARBON DIOXIDE” value [1] was 29 mmol/L, the CHLORIDE [1] was 99.67 MEQ/L and the CHOLESTEROL [1] was 34.17 mg/dL. For the same compound, the “CREATINE PHOSPHOKINASE” value [1] was 258.83 u/L, the CREATININE [1] was 0.27 mg/dL and the GLUCOSE [1] was 129 mg/dL. For the same compound, the “LACTATE DEHYDROGENASE” value [1] was 176.83 u/L, the LIPASE [1] was 10 u/L and the PHOSPHORUS [1] was 9.22 mg/dL. For the same compound, the POTASSIUM [1] was 5.35 MEQ/L, the SODIUM [1] was 142.35 MEQ/L and the “TOTAL BILIRUBIN” value [1] was 0.22 mg/dL. The “TOTAL PROTEIN” value [1] was 5.88 G/DL, the “URIC ACID” value [1] was 0.82 mg/dL and the “ABSOLUTE BASOPHIL” value [2] was 0 CELLS/uL. The “ABSOLUTE EOSINOPHIL” value [2] was 29 CELLS/uL, the “ABSOLUTE LYMPHOCYTE” value [2] was 12136.5 CELLS/uL and the “ABSOLUTE MONOCYTE” value [2] was 331.83 CELLS/uL. For the same compound, the “ABSOLUTE SEGMENTED NEUTROPHIL” value [2] was 869.33 CELLS/uL, the BASOPHIL [2] was 0% and the EOSINOPHIL [2] was 0.33%. The “ERYTHROCYTE COUNT” value [2] was 6.02 x10E6/uL, the HEMATOCRIT [2] was 37.65% and the HEMOGLOBIN [2] was 13.88 G/DL. The “LEUKOCYTE COUNT” value [2] was 13.37 x10E3/uL, the LYMPHOCYTE [2] was 90.67% and the “MEAN CORPUSCULAR HEMOGLOBIN” value [2] was 23.13 pg. For the same compound, the “MEAN CORPUSCULAR HEMOGLOBIN CONCENTRATION” value [2] was 36.9 G/DL, the “MEAN CORPUSCULAR VOLUME” value [2] was 62.75 fL and the MONOCYTE [2] was 2.5%. For the same compound, the NEUTROPHIL [2] was 6.5%, the “NUCLEATED RED BLOOD CELLS” value [2] was 0.17 /100WBC and the “PLATELET COUNT” value [2] was 800.67 x10E3/uL. For the same compound, the “ALANINE AMINOTRANSFERASE” value [2] was 129 u/L, the ALBUMIN [2] was 3.92 G/DL and the “ALKALINE PHOSPHATASE” value [2] was 531.5 u/L. The “ASPARTATE AMINOTRANSFERASE” value [2] was 232.83 u/L, the “BLOOD UREA NITROGEN” value [2] was 19.17 mg/dL and the “CARBON DIOXIDE” value [2] was 31.33 mmol/L. The CHLORIDE [2] was 101.5 MEQ/L, the CHOLESTEROL [2] was 41.67 mg/dL and the “CREATINE PHOSPHOKINASE” value [2] was 258.5 u/L. The CREATININE [2] was 0.28 mg/dL, the GLUCOSE [2] was 144.83 mg/dL and the “LACTATE DEHYDROGENASE” value [2] was 110 u/L. It also gave an LIPASE [2] of 10.5 u/L, a PHOSPHORUS [2] of 9.55 mg/dL and a POTASSIUM [2] of 5.46 MEQ/L. For the same compound, the SODIUM [2] was 145.42 MEQ/L, the “TOTAL BILIRUBIN” value [2] was 0.1 mg/dL and the “TOTAL PROTEIN” value [2] was 5.68 G/DL. For the same compound, the “URIC ACID” value [2] was 0.45 mg/dL, the “ABSOLUTE BASOPHIL” value [3] was 0 CELLS/uL and the “ABSOLUTE EOSINOPHIL” value [3] was 0 CELLS/uL. For the same compound, the “ABSOLUTE LYMPHOCYTE” value [3] was 11238.67 CELLS/uL, the “ABSOLUTE MONOCYTE” value [3] was 252 CELLS/uL and the “ABSOLUTE SEGMENTED NEUTROPHIL” value [3] was 1109.33 CELLS/uL. The BASOPHIL [3] was 0%, the EOSINOPHIL [3] was 0% and the “ERYTHROCYTE COUNT” value [3] was 6.55 x10E6/uL. For the same compound, the HEMATOCRIT [3] was 37.82%, the HEMOGLOBIN [3] was 14.68 G/DL and the “LEUKOCYTE COUNT” value [3] was 12.6 x10E3/uL. For the same compound, the LYMPHOCYTE [3] was 89%, the “MEAN CORPUSCULAR HEMOGLOBIN” value [3] was 22.53 pg and the “MEAN CORPUSCULAR HEMOGLOBIN CONCENTRATION” value [3] was 38.87 G/DL. For the same compound, the “MEAN CORPUSCULAR VOLUME” value [3] was 57.97 fL, the MONOCYTE [3] was 2% and the NEUTROPHIL [3] was 9%. For the same compound, the “NUCLEATED RED BLOOD CELLS” value [3] was 0 /100WBC, the “PLATELET COUNT” value [3] was 761 x10E3/uL and the “ALANINE AMINOTRANSFERASE” value [3] was 302 u/L. For the same compound, the ALBUMIN [3] was 3.77 G/DL, the “ALKALINE PHOSPHATASE” value [3] was 779.83 u/L and the “ASPARTATE AMINOTRANSFERASE” value [3] was 589.83 u/L. The “BLOOD UREA NITROGEN” value [3] was 17.67 mg/dL, the “CARBON DIOXIDE” value [3] was 30.5 mmol/L and the CHLORIDE [3] was 98.83 MEQ/L. The CHOLESTEROL [3] was 26.5 mg/dL, the “CREATINE PHOSPHOKINASE” value [3] was 269.67 u/L and the CREATININE [3] was 0.24 mg/dL. For the same compound, the GLUCOSE [3] was 122.83 mg/dL, the “LACTATE DEHYDROGENASE” value [3] was 182.5 u/L and the LIPASE [3] was 9.17 u/L. The PHOSPHORUS [3] was 9.22 mg/dL, the POTASSIUM [3] was 5.74 MEQ/L and the SODIUM [3] was 142.6 MEQ/L. For the same compound, the “TOTAL BILIRUBIN” value [3] was 0.22 mg/dL, the “TOTAL PROTEIN” value [3] was 5.7 G/DL and the “URIC ACID” value [3] was 0.47 mg/dL.
